Like-named read-outs stand apart in the source and are kept apart here.

The data set is described as follows: Pharmacokinetic evaluation in cynomolgus monkeys. In kind it is in vivo. The conditions noted are these: for AUC / half-life / Cmax / MRT / Vd/F / CL/F: both (Example 16), male (MYK-461), cynomolgus monkey, plasma; for AUC: read-out: Area under curve AUC; for half-life: read-out: Half-life T1/2 (converted); for Cmax: read-out: Plasma concentration Cmax; for MRT: read-out: Residence time MRT; for Vd/F: read-out: Apparent volume of distribution Vz/F; for CL/F: read-out: Clearance CL/F. The protocol:
With cynomolgus monkeys as test animals, the plasma concentrations of the test compounds were measured by LC/MS/MS at different time points after intragastric administration and intravenous injection. The pharmacokinetic performance of the compound disclosed herein was studied in cynomolgus monkeys and its pharmacokinetic profile was evaluated.
Pharmacokinetics of the compound of Example 16 in cynomolgus monkeys: 8 cynomolgus monkeys, an equal number of males and females, divided into 2 groups of 4, provided by Shanghai Medicilon Inc.
Pharmacokinetics of compound MYK-461 in cynomolgus monkeys: 6 cynomolgus monkeys, male, divided into 2 groups of 3, provided by Shanghai Medicilon Inc.
A certain amount of the compound of Example 16 was measured out, and 5% DMSO, 30% PG, 30% PEG400 and 35% normal saline were added to prepare a clear solution.
A certain amount of compound MYK-461 was measured out, and 5% DMSO, 20% PG, 20% PEG400 and 55% normal saline were added to prepare a clear solution.
Cynomolgus monkeys were fasted overnight and then given compounds by intragastric administration and intravenous injection at doses of 2 mg/kg and 0.5 mg/kg, respectively, and at volumes of 5 mL/kg and 2 mL/kg, respectively.
1.0-mL blood samples were collected from the forelimb veins of the animals in the intragastric administration group before administration and 0.25 h, 0.5 h, 1h, 2 h, 4 h, 6 h, 8 h, 12 h and 24 h after administration, placed into EDTA-K2 anticoagulant tubes, and centrifuged at 10,000 rpm for 5 min (4° C.), and plasma was isolated within 1 h and stored at −80° C. before analysis. The blood collection to centrifugation process was performed under ice bath conditions. Three hours after administration, feeding was resumed, and ad libitum access to water was given.
Blood samples were collected from the animals in the intravenous injection group before administration and 5 min, 0.25 h, 0.5 h, 1.0 h, 2.0 h, 4.0 h, 8.0 h, 12.0 h and 24.0 h after administration and processed as in the intragastric administration group.
Determination of plasma concentrations in cynomolgus monkeys after intragastric administration and intravenous injection of different concentrations of test compounds: 20 μL of cynomolgus monkey plasma at each time point post-dose was mixed with an internal standard solution (internal standard for the compound of Example 16: 10 ng/mL verapamil; internal standard for compound MYK-461: 100 ng/mL camptothecin) and 400 μL of methanol; the mixture was vortexed for 1 min and centrifuged at 18,000 g for 7 min, and 200 μL of the supernatant was transferred to a 96-well plate: 2 μL of the supernatant was taken for LC/MS/MS analysis.

Setting [1] is: intravenous injection, 0.5 mg/kg.
Where [2] appears, read: po, intragastric administration, 2 mg/kg.

In the case of `Cc1ccc(F)c([C@H](C)Nc2nc(=O)n(C3CCOCC3)c(=O)[nH]2)c1` [Example 16, (S)-6-((1-(2-Fluoro-5-methylphenyl)ethyl)amino)-3-(tetrahydro-2H-pyran-4-yl)-1,3,5-triazine-2,4(1H,3H)-dione], the “T1/2 comparison (in words)” value was “significantly shorter T1/2” and the “absorption profile (in words)” value is “good absorption profile”. For the same molecule, under setting [1], the AUC was found to be 1020 ng·h/mL, the half-life was 336 min, the Cmax was 1660 ng/mL and the mean residence time (MRT) stood at 6.8 h. Under setting [1], the “Apparent volume of distribution Vz/F” value is 3579 mL/kg and the “Clearance CL/F” value was found to be 7.46 mL/min/kg. Further, under setting [2], the Vd/F stood at 10.3 L/kg, the AUC came to 2400 ng·h/mL, the CL/F turned out to be 11.8 mL/min/kg and the half-life was 618 min. Under setting [2], the Cmax worked out at 553 ng/mL and the mean residence time (MRT) stood at 12.5 h.
With `CC(C)n1c(=O)cc(N[C@@H](C)c2ccccc2)[nH]c1=O` [MYK-461, reference compound], the “T1/2 comparison (in words)” value is given as “longer T1/2”. For the same molecule, under setting [1], the area under the curve (AUC) came to 976 ng·h/mL, the half-life was 1640 min, the Cmax worked out at 222 ng/mL and the MRT amounted to 42.8 h. In addition, under setting [1], the “Apparent volume of distribution Vz/F” value is given as 8203 mL/kg and the “Clearance CL/F” value came to 5.02 mL/min/kg. In addition, under setting [2], the Vd/F was 11.4 L/kg, the AUC stood at 3520 ng·h/mL, the CL/F came to 2.34 mL/min/kg and the half-life was 4700 min. Under setting [2], the Cmax was 563 ng/mL and the mean residence time MRT came to 114 h.

(Values after US20240010639A1, “TRIAZINE DIONE DERIVATIVE, PREPARATION METHOD THEREFOR AND APPLICATION THEREOF IN MEDICINE” (Jiangsu Hengrui Pharmaceuticals Co., Ltd., priority 2020, published 2024).)
